In the OligoGym collection:
After the bases stand the sugars from the 5' end (letter, count) and the backbone: PS all phosphorothioate, else s phosphorothioate and o phosphodiester by linkage. Methylation of C is not given here. e = 2'-O-(2-methoxyethyl) (MOE); k = constrained ethyl (cEt); d = 2'-deoxy (DNA); m = 2'-O-methyl

Molecular target: HSD17B13
Conditions: ASO, HepaRG

Sequence	target mRNA inhibition (1 µM) [%]	further results
AAAAAAGCTTATCGAG (sugars k3 d10 k3, PS)	7	–
AAAAAATTGGTTTCGA (sugars k3 d10 k3, PS)	20	–
AAAAATTGGTTTCGAA (sugars k3 d10 k3, PS)	13	–
AAAAGACTTTGAGACT (sugars k3 d10 k3, PS)	32	–
AAAATGGTGGCGAGGC (sugars k3 d10 k3, PS)	0	–
AAACAAGAGGATAGTC (sugars k3 d10 k3, PS)	48	–
AAACAAGAGGATAGTC (sugars kkdddddddddkekek, PS)	52	–
AAACATAGGCTTAGTG (sugars k3 d10 k3, PS)	16	–
AAACATCTCTGGGACC (sugars k3 d1 m1 d8 k3, PS)	66	–
AAACATCTCTGGGACC (sugars k3 d9 k3 e1, PS)	48	–
AAACATCTCTGGGACC (sugars kkdddddddddkekek, PS)	36	–
AAACCTTCCCTGTGTA (sugars k3 d10 k3, PS)	34	–
AAACTAGGAAGTGATC (sugars k3 d10 k3, PS)	39	–
AAACTTGATCTCTTAG (sugars k3 d10 k3, PS)	61	–
AAAGACTTTGAGACTC (sugars k3 d10 k3, PS)	68	target mRNA inhibition (0.02 µM): 0%; target mRNA inhibition (0.078 µM): 18%; target mRNA inhibition (0.313 µM): 40%; target mRNA inhibition (1.25 µM): 65%; target mRNA inhibition (5 µM): 87%
AAAGTGTCCTCGATCC (sugars k3 d10 k3, PS)	36	–
AAAGTTCATTCGAATT (sugars k3 d10 k3, PS)	63	–
AAAGTTTGTTAGAGTG (sugars k3 d10 k3, PS)	75	target mRNA inhibition (0.02 µM): 0%; target mRNA inhibition (0.078 µM): 6%; target mRNA inhibition (0.313 µM): 0%; target mRNA inhibition (1.25 µM): 55%; target mRNA inhibition (5 µM): 78%
AAATAGAGTCGGTCAC (sugars k3 d1 m1 d8 k3, PS)	63	–
AAATATGTCCAGGTTG (sugars k3 d1 m1 d8 k3, PS)	63	–
AAATGAGGCGGCACTC (sugars k3 d10 k3, PS)	20	–
AAATGTCCTAGGATGT (sugars k3 d10 k3, PS)	36	–
AACAGTTTAGATTGCA (sugars k3 d10 k3, PS)	71	–
AACATAGGCTTAGTGT (sugars k3 d10 k3, PS)	18	–

Sequence	target mRNA inhibition (1 µM) [%]	further results
AACATCTCTGGGACCA (sugars kkdddddddddkekek, PS)	36	–
AACAUCTCTGGGACCA (sugars k3 d1 m1 d8 k3, PS)	64	–
AACCAATCCTCAGCTT (sugars k3 d10 k3, PS)	0	–
AACCATAGGACATGGA (sugars k3 d10 k3, PS)	71	–
AACCTAATAACTACAT (sugars k3 d10 k3, PS)	0	–
AACCTTCCCTGTGTAA (sugars k3 d10 k3, PS)	38	–
AACTAGGAAGTGATCC (sugars k3 d10 k3, PS)	58	–
AACTCCGTTATAAGTT (sugars k3 d10 k3, PS)	11	–
AACTTGATCTCTTAGC (sugars k3 d10 k3, PS)	64	–
AAGACAGACCAAGTAG (sugars k3 d10 k3, PS)	16	–
AAGACTTTGAGACTCT (sugars k3 d10 k3, PS)	62	–
AAGAGCTGGTAAAGGT (sugars k3 d10 k3, PS)	47	–
AAGAGGATAGTCCATG (sugars k3 d10 k3, PS)	65	–
AAGAGTCAGTATCCTC (sugars kkdddddddddkekek, PS)	14	–
AAGATACCCAGGTTGC (sugars k3 d10 k3, PS)	59	–
AAGATTAGTTAACCTT (sugars k3 d10 k3, PS)	24	–
AAGCATTGTTAGCTAA (sugars k3 d10 k3, PS)	11	–
AAGGACTTTCATAGGG (sugars k3 d10 k3, PS)	71	–
AAGGATTTCTAGGATG (sugars k3 d10 k3, PS)	71	–
AAGGCTTATGAAGTTA (sugars k3 d10 k3, PS)	61	–
AAGTTAATAGGACTAA (sugars k3 d10 k3, PS)	17	–
AAGTTTTTAAGAGGCA (sugars k3 d10 k3, PS)	77	target mRNA inhibition (0.02 µM): 0%; target mRNA inhibition (0.078 µM): 0%; target mRNA inhibition (0.313 µM): 43%; target mRNA inhibition (1.25 µM): 73%; target mRNA inhibition (5 µM): 96%
AATAAAGCTTTGCAGC (sugars k3 d10 k3, PS)	26	–
AATAATAGCTCTATTG (sugars kkdddddddddkekek, PS)	2	–

Sequence	target mRNA inhibition (1 µM) [%]	further results
AATACATATCTTACTC (sugars k3 d10 k3, PS)	37	–
AATACGCTGAGAGTTA (sugars k3 d10 k3, PS)	48	–
AATACTAATGTCCAAG (sugars k3 d10 k3, PS)	65	–
AATAGAGTCGGTCACC (sugars k3 d1 m1 d8 k3, PS)	57	–
AATAGAGTCGGTCACC (sugars kkdddddddddkekek, PS)	13	–
AATAGCAAGCCAACAG (sugars k3 d10 k3, PS)	9	–
AATAGCCATGTAGCTA (sugars k3 d10 k3, PS)	28	–
AATATCAGCCATCTAG (sugars k3 d10 k3, PS)	24	–
AATATGGGATGAGGTA (sugars k3 d9 k3 e1, PS)	47	–
AATATTGAGGCACTGG (sugars k3 d10 k3, PS)	54	–
AATCAATCTGTCTGAA (sugars k3 d10 k3, PS)	34	–
AATCACAAGTAAGGTA (sugars kkdddddddddkekek, PS)	59	–
AATCAGTTTTCCTCAT (sugars k3 d10 k3, PS)	53	–
AATCCCAACCAAACTT (sugars k3 d1 m1 d8 k3, PS)	7	–
AATCCCAACCAAACTT (sugars k3 d10 k3, PS)	23	–
AATCCTATGCAAATTC (sugars k3 d10 k3, PS)	42	–
AATCGCTGCTTAGTTC (sugars k3 d10 k3, PS)	41	–
AATCTAGCAACCTCTA (sugars k3 d10 k3, PS)	22	–
AATGCTACTTGAACAG (sugars kkdddddddddkekek, PS)	39	–
AATGTATGAGGTCTCC (sugars k3 d10 k3, PS)	65	–
AATGTCCTAGGATGTT (sugars k3 d10 k3, PS)	70	–
AATTACTCCGTTCTGC (sugars k3 d10 k3, PS)	6	–
AATTCACCTTGACTAA (sugars k3 d9 k3 e1, PS)	16	–
AATTGATACACCAATG (sugars kkdddddddddkekek, PS)	50	–

Sequence	target mRNA inhibition (1 µM) [%]	further results
AATTTATTGGTATGGT (sugars k3 d10 k3, PS)	30	–
AATTTGTGAACCTGCA (sugars k3 d10 k3, PS)	20	–
ACAACTGGAGGTATGT (sugars k3 d10 k3, PS)	0	–
ACAAGATTAGTCTTGA (sugars k3 d10 k3, PS)	45	–
ACAATATGGGATGAGG (sugars k3 d9 k3 e1, PS)	76	target mRNA inhibition (0.02 µM): 0%; target mRNA inhibition (0.078 µM): 0%; target mRNA inhibition (0.313 µM): 0%; target mRNA inhibition (1.25 µM): 39%; target mRNA inhibition (5 µM): 55%
ACAATCTAGCAACCTC (sugars k3 d10 k3, PS)	44	–
ACAATCTCCCCAGCCA (sugars k3 d10 k3, PS)	67	–
ACACTAATTTAGTCAA (sugars k3 d10 k3, PS)	16	–
ACACUAATATTGAGGC (sugars k3 d1 m1 d8 k3, PS)	43	–
ACAGAGGAGTTTGCAG (sugars k3 d10 k3, PS)	37	–
ACAGATTGGAATGCTA (sugars k3 d10 k3, PS)	50	–
ACAGTAAAATTATGCC (sugars k3 d9 k3 e1, PS)	62	–
ACAGTCTTAAACCTTC (sugars k3 d9 k3 e1, PS)	73	target mRNA inhibition (0.02 µM): 13%; target mRNA inhibition (0.078 µM): 31%; target mRNA inhibition (0.313 µM): 52%; target mRNA inhibition (1.25 µM): 71%; target mRNA inhibition (5 µM): 80%
ACAGTCTTAAACCTTC (sugars k3 d10 k3, PS)	76	target mRNA inhibition (0.02 µM): 5%; target mRNA inhibition (0.078 µM): 16%; target mRNA inhibition (0.313 µM): 52%; target mRNA inhibition (1.25 µM): 75%; target mRNA inhibition (5 µM): 80%
ACAGTCTTAAACCTTC (sugars kkdddddddddkekek, PS)	46	–
ACAGUCTTAAACCTTC (sugars k3 d1 m1 d8 k3, PS)	81	target mRNA inhibition (0.02 µM): 19%; target mRNA inhibition (0.078 µM): 35%; target mRNA inhibition (0.313 µM): 41%; target mRNA inhibition (1.25 µM): 67%; target mRNA inhibition (5 µM): 85%
ACATAACTACTTCAGT (sugars k3 d10 k3, PS)	28	–
ACATAGCTAACTCAGG (sugars k3 d10 k3, PS)	38	–
ACATATACAGACTAAG (sugars k3 d10 k3, PS)	46	–
ACATATGGTGTACACT (sugars k3 d10 k3, PS)	19	–
ACATCTCTGGGACCAA (sugars kkdddddddddkekek, PS)	67	–
ACATTCTTCAGGTGTT (sugars k3 d10 k3, PS)	88	target mRNA inhibition (0.02 µM): 0%; target mRNA inhibition (0.078 µM): 20%; target mRNA inhibition (0.313 µM): 48%; target mRNA inhibition (1.25 µM): 80%; target mRNA inhibition (5 µM): 90%
ACATTGCAGTTATTAG (sugars k3 d10 k3, PS)	42	–
ACATUAGCAAGCTAAG (sugars k3 d1 m1 d8 k3, PS)	23	–
